Reference: patent publication US10441589B2, “Combinations and methods comprising a capsid assembly inhibitor” (Novira Therapeutics, Inc., priority 2016, dated 2019)
Counter-ions that a name gives are not always drawn. Like-named read-outs stand apart in the source and are kept apart here. Marks after values point to notes of the source that are not given here.

Assays:
wild type HBV = assay: Antiviral activity in HepG2 cells transiently transfected with wild-type HBV, intracellular encapsidated HBV DNA; type: cell-based, HBV genotype B; conditions: Hepatitis B virus, 72 h, HepG2 transient transfection, 3 days, mean ± SD, at least three studies, read-out: WT EC50
Experimental: (§1) In this example, the antiviral activity of Compound 1 was determined using HepG2 liver cells transiently transfected with plasmids expression replication-competent HBV DNA and quantitation of intracellular encapsidated HBV DNA. The antiviral activity of Compound 1 was measured against nucleoside inhibitor sensitive, wild-type HBV, as well as against HBV variants resistant to nucleoside analogs that contain defined amino acid changes in the coding sequence of the reverse transcriptase protein: rtL180M/M204V, rtN236T, rtA181V, rtA181V/N236T, and rtL180M/M204V/N236T.
(§2) Plasmid DNA constructs containing a 1.1×HBV genome under the control of a CMV promoter were previously cloned from serum of an HBV infected patient prior to LMV treatment (Genbank AY220698, Fudan University, China; SEQ ID NO:1, see Table 1) and after development of resistance to LMV (Genbank AY220697, Fudan University, China; SEQ ID NO:2, see Table 1) (Zhang J M et al. 2005. J Med Virol 77: 203-208). Genotyping analysis confirmed that both isolates belong to genotype B HBV, and that the isolate collected after the development of resistance to LMV contained two amino acid changes within the polymerase gene (L180M/M204V). The HBV variant was named rtL180M/M204V to indicate that the amino acid changes were present in the reverse transcriptase (rt) protein. Two additional plasmids were generated by introducing coding sequence changes resulting in the amino acid changes N236T and A181V in the HBV polymerase, respectively. The nucleotide changes were introduced into the wild type genotype B plasmid by site directed mutagenesis according to manufacturer recommendation (Agilent Technologies; Santa Clara, Calif.; Catalog#200519) using the following primers and their corresponding reverse complement sequence (nucleotide change underlined): 5′-CTTTGGGTATACATTTAACCCCTCACAAAAC-3′ (rtN236T; SEQ ID NO:3), 5′-GTCCGTTTCTCTTGGTTCAGTTTACTAGTG-3′ (rtA181V; SEQ ID NO:4). In two additional plasmid constructs, the rtN236T amino acid change was also added into the rtA181V and rtL180M/M204V plasmids to generate the rtA181V/N236T double mutant and rtL180M/M204V/N236T triple mutant HBV variants, respectively. […]
(§3) HepG2 cells were seeded in collagen coated 96-well plates (BIOCOAT™; Fisher Scientific, Catalog#354407) at a density of 20,000 cells/well and allowed to attach overnight at 37° C. and 5% CO2. […] Cells were incubated with compounds for three days, after which intracellular HBV DNA was extracted from cells and levels of secreted Gaussian luciferase was determined from the medium using the Gaussia Flash Luciferase assay kit (THERMO SCIENTIFIC™, Fisher Scientific, Catalog#16158). […]

[1] = system: rtL180M/M204V HBV variant; assay: Antiviral activity in HepG2 cells transiently transfected with rtL180M/M204V HBV variant; type: cell-based, HBV genotype B; conditions: for Fold Change rtL180M/M204V: EC50 fold change relative to mean wild-type EC50, mean ± SD
Experimental: as §1, §2, §3

rtN236T HBV variant = assay: Antiviral activity in HepG2 cells transiently transfected with rtN236T HBV variant; type: cell-based, HBV genotype B; conditions: EC50 fold change relative to mean wild-type EC50; mean ± SD
Experimental: as §1, §2, §3

rtA181V HBV variant = assay: Antiviral activity in HepG2 cells transiently transfected with rtA181V HBV variant; type: cell-based, HBV genotype B; conditions: for Fold Change rtA181V: EC50 fold change relative to mean wild-type EC50, mean ± SD
Experimental: as §1
(§4) Plasmid DNA constructs containing a 1.1×HBV genome under the control of a CMV promoter were previously cloned from serum of an HBV infected patient prior to LMV treatment (Genbank AY220698, Fudan University, China; SEQ ID NO:1, see Table 1) and after development of resistance to LMV (Genbank AY220697, Fudan University, China; SEQ ID NO:2, see Table 1) (Zhang J M et al. 2005. J Med Virol 77: 203-208). Genotyping analysis confirmed that both isolates belong to genotype B HBV, and that the isolate collected after the development of resistance to LMV contained two amino acid changes within the polymerase gene (L180M/M204V). The HBV variant was named rtL180M/M204V to indicate that the amino acid changes were present in the reverse transcriptase (rt) protein. Two additional plasmids were generated by introducing coding sequence changes resulting in the amino acid changes N236T and A181V in the HBV polymerase, respectively. […]
as §3

[2] = Cell viability of primary human hepatocytes (CellTiter-Glo, intracellular ATP); type: cell-based; conditions: human, cryopreserved primary human hepatocytes
Experimental: (§5) Cryopreserved primary human hepatocytes from individual donors (primary hepatocyte IDs: HuM4038, HuM4055A, and HuM4059) were purchased from Triangle Research Labs (TRL; Research Triangle Park, N.C.). Cells were thawed using hepatocyte thawing medium (TRL, Catalog#MCHT50) according to manufacturers' recommendations. After centrifugation, cells were resuspended in supplemented hepatocyte plating medium (TRL, Catalog#MP250). Cells were plated in collagen Type I coated 96-well plates (Corning; Corning, N.Y.; Catalog#356407) at a density of 40,000 cells per well and maintained in humidified incubators at 37° C. and 5% CO2 overnight prior to addition of test compounds.
(§6) For each donor, three 96-well plates were set up to evaluate the effect of increasing concentrations of Compound 1 either alone or in combination with nucleoside analogs on hepatocyte cell viability. On each plate, cells were incubated with Compound 1 alone as duplicates, or Compound 1 in the presence of LMV, TFV, or ETV as triplicates. The effects of nucleoside analogs alone on hepatocyte cell viability were also determined in triplicates for each donor. Compound 1 was half-log serially diluted in DMSO (Sigma, Catalog #D2650) and added to primary human hepatocytes either alone or in combination with LMV (30 and 300 μM), TFV (30 μM), or ETV (30 μM). Single and combined drugs were added to primary human hepatocytes at a final DMSO (Sigma D2650) concentration of 0.5% across all concentrations. Cells were incubated with compounds for three days, after which medium was removed and fresh medium containing compounds was added and incubated for another three days. As a no compound control, primary human hepatocytes were treated with 0.5% DMSO, and these values were then used to define the 0% inhibition level. Background signal was determined as the mean value from wells containing only culture medium. Cell viability was monitored by using CellTiter-Glo cell viability reagent according to the manufacturer protocol (Promega; Madison, Wis.; G7573). Chemiluminescence signal proportional to the amount of cellular ATP was measured by using the Victor X4 plate reader (Perkin Elmer; Waltham, Mass.). The mean background signal from the medium only wells was subtracted from all other samples, and percent inhibition was calculated using equation E1 (as in Example 1): % inhibition=(DMSOave−Xi)/DMSOave×100% (E1):
(§7) where DMSOave is the mean signal calculated from the wells that were treated with 0.5% DMSO control (0% inhibition control) and X, is the signal measured from the individual wells. CC50 values were determined from the % inhibition data obtained at different compound concentrations by non-linear fitting using Graphpad Prism software and equation E3, in cases were % inhibition values exceeded 50% at the highest concentration tested. Y=Ymin+(Ymax−Yin)/(1+10^(LogCC50−X)×HillSlope) (E3):
(§8) where Y represents percent inhibition values and X represents the logarithm of compound concentrations.

[3] = system: rtL180M/M204V/N236T HBV variant; assay: Antiviral activity in HepG2 cells transiently transfected with rtL180M/M204V/N236T HBV variant; type: cell-based, HBV genotype B; conditions: EC50 fold change relative to mean wild-type EC50; mean ± SD
Experimental: as §1, §4, §3

[4] = system: rtA181V/N236T HBV variant; assay: Antiviral activity in HepG2 cells transiently transfected with rtA181V/N236T HBV variant; type: cell-based, HBV genotype B; conditions: EC50 fold change relative to mean wild-type EC50; mean ± SD
Experimental: as §1, with “rtL180M/M204V/N236T. […]” for “rtL180M/M204V/N236T.”
as §3

[5] = system: primary human hepatocytes; assay: Cell viability of primary human hepatocytes (CellTiter-Glo, intracellular ATP); type: cell-based; conditions: 6 days; for cell viability at single concentrations: 30 or 300 μM LMV, 30 μM TFV, 30 μM ETV, three donors
Experimental: as §5, §6, §7, §8

[6] = system: HBV DNA replication in HepG2.2.15 cells; assay: 6-day HBV antiviral assay in HepG2.2.15 cells, qPCR of HBV DNA in supernatant, MacSynergy II; type: cell-based
Experimental: The anti-HBV activity of combinations of Compound 2 and Compound 3 with the nucleos(t)ide analogues ETV or TFV was assessed in a 6-day HBV antiviral assay using qPCR for the detection of HBV DNA in the cell culture supernatant as a read-out. The combination effect was analyzed using Mac Synergy II software. The anti-HBV activity of ETV and TFV when tested as single agents in HepG2.2.15 cells as well (Table 14).
During the antiviral testing, HepG2.2.15 cells were cultured in RPMI1640 medium and the FBS was reduced to 2%. Cells were plated at a density of 50.000 cells per well into a 96-well plate.
One day after seeding of the HepG2.2.15 cells, the supernatant was removed and 200 μL medium with test compounds, diluted in a checkerboard fashion, was added to the cells. […] HBV DNA was detected by quantitative real time PCR (qPCR). HBV DNA was quantified by a real-time PCR assay using a LightCycler480 Probes Master kit (Roche) with primers 5′-[sequence]-3′ (sense) and 5′-[sequence]-3′ (antisense, SEQ ID NO: 7). […]
The percentage inhibition values obtained for each combination of compound concentration was calculated as the average of 3 to 5 replicate plates of the same combination per experiment. To robustly identify outliers, the distance from the average of the other 4 replicates was calculated for every data point. […]

[7] = donor HuM4038, first HuM4038 column of Table 3, 6 days, read-out: HuM4038 CC50
[8] = donor HuM4038, second HuM4038 column of Table 3, 6 days, read-out: HuM4038 CC50
[9] = donor HuM4055A, 6 days, read-out: HuM4055A CC50
[10] = donor HuM4059, 6 days, read-out: HuM4059 CC50

In the case of O=C(Nc1cc(F)c(F)c(F)c1)c1ccc(F)c(S(=O)(=O)N2CCC(O)CC2)c1 [Compound 1, 4-fluoro-3-((4-hydroxypiperidin-1-yl)sulfonyl)-N-(3,4,5,-trifluorophenyl)benzamide], the EC50 (wild type HBV) is reported as 0.31 ± 0.1 µM, the “Fold Change rtL180M/M204V” value [1] is reported as 1.3 ± 0.6^ns and the “Fold Change rtN236T” value (rtN236T HBV variant) is reported as 0.85 ± 0.40^ns. The “Fold Change rtA181V” value (rtA181V HBV variant) was 0.82 ± 0.19^ns, the CC50 at 6 days ([2]; Table 4, alone, donor HuM4038, read-out: Cmpd (I) CC50) was 26 µM and the CC50 at 6 days ([2]; Table 4, alone, donor HuM4055A, read-out: Cmpd (I) CC50) was 19 µM. It also gave a CC50 at 6 days ([2]; Table 4, alone, donor HuM4059, read-out: Cmpd (I) CC50) of 83 µM, a CC50 at 6 days ([2]; Table 5, alone, donor HuM4038, read-out: Cmpd (I) CC50) of 16 µM and a CC50 at 6 days ([2]; Table 5, alone, donor HuM4055A, read-out: Cmpd (I) CC50) of 19 µM. For the same compound, the CC50 at 6 days ([2]; Table 5, alone, donor HuM4059, read-out: Cmpd (I) CC50) was 83 µM, the CC50 at 6 days ([2]; Table 6, alone, donor HuM4038, read-out: Cmpd (I) CC50) was 16 µM and the CC50 at 6 days ([2]; Table 6, alone, donor HuM4055A, read-out: Cmpd (I) CC50) was 19 µM. It also gave a CC50 at 6 days ([2]; Table 6, alone, donor HuM4059, read-out: Cmpd (I) CC50) of 83 µM, a CC50 at 6 days [2, 7] of 16 µM and a CC50 at 6 days [2, 8] of 26 µM. It also gave a CC50 at 6 days [2, 9] of 19 µM, a CC50 at 6 days [2, 10] of 82 µM and a CC50 at 6 days ([2]; range over three donors (HuM4038, HuM4055A, HuM4059), 6 days, read-out: CC50 values, range) of 16 to 82 µM. The “Fold Change rtL180M/M204V/N236T” value [3] was 1.4 ± 0.5^ns and the “Fold Change rtA181V/N236T” value [4] was 0.85 ± 0.26^ns.

With Nc1ccn([C@@H]2CS[C@H](CO)O2)c(=O)n1 [LMV, Lamivudine] the EC50 (wild type HBV) was 0.53 µM, the “Fold Change rtL180M/M204V” value [1] was greater than 190 and the “Fold Change rtN236T” value (rtN236T HBV variant) was 1.0 ± 0.5^ns. For the same compound, the “cell viability at single concentrations” value [5] was “No reduction of cell viability”, the CC50 at 6 days [2, 7] was greater than 30 µM and the CC50 at 6 days [2, 8] was greater than 300 µM. The CC50 at 6 days [2, 9] was greater than 300 µM, the CC50 at 6 days [2, 10] was greater than 300 µM and the “Fold Change rtL180M/M204V/N236T” value [3] was greater than 190.

With CC(C)OC(=O)OCOP(=O)(CO[C@H](C)Cn1cnc2c(N)ncnc21)OCOC(=O)OC(C)C [TDF, tenofovir disoproxil fumarate] the EC50 (wild type HBV) was 0.032 µM, the “Fold Change rtL180M/M204V” value [1] was 1.1 ± 0.3^ns and the EC50 ([1]; Hepatitis B virus, HepG2, read-out: mean EC50 against rtL180M/M204V variant) was 0.034 µM. The “Fold Change rtN236T” value (rtN236T HBV variant) was 2.2 ± 1.0^b, the “Fold Change rtA181V” value (rtA181V HBV variant) was 1.4 ± 0.05^ns and the EC50 (rtA181V HBV variant; Hepatitis B virus, HepG2, read-out: mean EC50 against rtA181V variant) was 0.043 µM. For the same compound, the “Fold Change rtL180M/M204V/N236T” value [3] was 2.9 ± 1.5^b and the “Fold Change rtA181V/N236T” value [4] was 2.8 ± 1.4^b.

In the case of C[C@H](Cn1cnc2c(N)ncnc21)OCP(=O)(O)O [TFV, tenofovir], the EC50 ([6]; single agents in HepG2.2.15 cells, read-out: Median EC50) is reported as 15 nM, the “cell viability at single concentrations” value [5] is reported as “No reduction of cell viability” and the CC50 ([5]; donor HuM4038, first HuM4038 column of Table 3, read-out: HuM4038 CC50) is reported as greater than 30 µM. For the same compound, the CC50 ([5]; donor HuM4038, second HuM4038 column of Table 3, read-out: HuM4038 CC50) was greater than 30 µM, the CC50 ([5]; donor HuM4055A, read-out: HuM4055A CC50) was greater than 30 µM and the CC50 ([5]; donor HuM4059, read-out: HuM4059 CC50) was greater than 30 µM.

In the case of C=C1[C@H](CO)[C@@H](O)C[C@@H]1n1cnc2c(=O)[nH]c(N)nc21 [ETV, entecavir], the EC50 (wild type HBV) is reported as 0.0014 ± 0.0004 µM, the “Fold Change rtN236T” value (rtN236T HBV variant) is reported as 0.67 ± 0.22^ns and the EC50 ([6]; Hepatitis B virus, HepG2.2.15, read-out: Median EC50) is reported as 0.07 nM. For the same compound, the “cell viability at single concentrations” value [5] was “No reduction of cell viability”, the CC50 at 6 days [2, 7] was greater than 30 µM and the CC50 at 6 days [2, 8] was greater than 30 µM. The CC50 at 6 days [2, 9] was greater than 30 µM and the CC50 at 6 days [2, 10] was greater than 30 µM.
